What all share (type): physicochemical
The nature of data set [1]: Solubility of Amlexanox in 95% ethanol with imidazole (visual observation). The note with it: 200 mM imidazole vs no imidazole. The procedure:
Amlexanox (4.8 mg to 20.5 mg) was added to seven glass scintillation vials. 95% Ethanol (in 5-100 uL aliquots) with various concentrations of imidazole (0-200 mM) was added to the vials containing Amlexanox. The total volume of 95% ethanol added to result in Amlexanox solubilization (by visual observation) was recorded.

Data set [2] can be described thus: Solubility of Amlexanox in solvents and at different pH. The procedure:
To illustrate the many aspects of the present invention, it is provided herein several Examples of formulations which comprise a specific not-very-soluble drug known as Amlexanox or 2-amino-7-(1-methylethyl)-5-oxo-5H-[1]benzopyrano-[2,3-b]-pyridine-3-carboxylic acid. Amlexanox is not very soluble in lower alkyl alcohols (0.58 mg/mL, in dehydrated ethanol) or water (0.005 mg/mL). However, solubility of Amlexanox increases with pH. […] Thus, at any given time, Amlexanox may be present in the formulation as a solution or suspension or both.

A short description of data set [3]: Solubility of Propellant 152a in aqueous and ethanol/water solvents, with or without ethyl cellulose. The protocol: In one aspect, the propellant is 1,1-difluoroethane also known as Propellant 152a, commercially available under the trade mark Dymel®. Propellant 152a is slightly soluble in aqueous solvents (solubility of less than 1% by weight).
The inventors have experimented with ethanol as a cosolvent to be used in conjunction with Propellant 152a. When water is added to the ethanol/Propellant 152a mixture, the solubility of Propellant 152a decreases. […] This unexpected increase in solubility was not observed when hydroxyethyl cellulose or hydroxypropyl cellulose was used instead of ethyl cellulose.

Molecules are shown by their SMILES. ≈ marks a conversion by molar mass, not a printed value.

Consider `CC(C)c1ccc2oc3nc(N)c(C(=O)O)cc3c(=O)c2c1` [Amlexanox, 2-amino-7-(1-methylethyl)-5-oxo-5H-[1]benzopyrano-[2,3-b]-pyridine-3-carboxylic acid], for which the “solubility in 95% ethanol with 200 mM imidazole relative to absence of imidazole” value in data set [1] was “approximately 7.5 fold”. For the same compound, the solubility was found to be 12 µg/mL (≈ 40.2 µM) in data set [2] (aqueous buffer, pH 3.0); 5 µg/mL (≈ 16.8 µM) in data set [2] (in water); 580 µg/mL (≈ 1940 µM) in data set [2] (organic solvent or mixture, in dehydrated ethanol); 15300 µg/mL (≈ 51300 µM) in data set [2] (pH 5.96, aqueous buffer).

Turning to `CC(F)F` [Propellant 152a, 1,1-difluoroethane], the “solubility of Propellant 152a” value in data set [3] (aqueous solvents) is given as “less than 1 % by weight”; in data set [3] (ethyl cellulose about 0.7% to about 1.4%, ethanol/water (80:20)) it was 62-64%; in data set [3] (ethyl cellulose about 0.75% to about 10% added to ethanol or ethanol/water mixtures), 62 to 64%; in data set [3] (mixture of ethanol/water (80:20), no ethyl cellulose), “about 49%”.

(Values after patent US6432415B1, “Pharmaceutical gel and aerosol formulations and methods to administer the same to skin and mucosal surfaces” (Axrix Laboratories, Inc., priority 1999, dated 2002).)
